Active and inactive are the calls of the source. The rule behind the calls is not given here.
Tests used:
[1] = tested on: Mus musculus; assay: Percent protection of DBA/2 mice from audiogenically induced tonic seizures at a dose of 30 mg/kg of test compound; type: functional
[2] = Inhibition of [3H]leucine uptake into CHO cells by L-amino acid transporters; type: functional, cell-based; settings: Cricetulus griseus
[3] = tested on: Rattus norvegicus; assay: Inhibition of carrageenan-induced thermal hyperalgesia in rats 1 hr after administration of a 30 mg/kg dose of test compound; type: functional
[4] = tested on: Rattus norvegicus; assay: The ability of 30 mg/kg oral dose of compound to restore punished drinking behavior in rats expressed as percent reference activity (PRA); type: functional
[5] = Inhibition of [3H]gabapentin binding to pig brain membranes; parameters: species or system Sus scrofa, Membrane
[6] = tested on: Rattus norvegicus; assay: The ability of 30 mg/kg oral dose of compound to restore punished drinking behavior in rats expressed as percent reference activity (PRA); NA-not active; type: functional, organism-based; parameters: dose 30 mg/kg
[7] = tested on: Rattus norvegicus; assay: Inhibition of carrageenan-induced thermal hyperalgesia in rats 1 hr after administration of a 30 mg/kg dose of test compound; NA-not active; type: functional, organism-based; parameters: dose 30 mg/kg

| SMILES | Protection [1] | IC50 [2] | CITH [3] | WLC PRA [4] | IC50 [5] | WLC PRA [6] | CITH [7] |
| --- | --- | --- | --- | --- | --- | --- | --- |
| CC(C)C[C@H](CN)CC(=O)O [PREGABALIN] | 100% | 158 µM | 52 | 100 |  |  |  |
| CC(C)C[C@@H](CCN)C(=O)O | 0% | > 10000 µM |  |  | 2.06 µM | inactive |  |
| CC(C)[C@H](C)[C@H](CN)CC(=O)O | 20% | 28 µM |  |  |  | inactive | inactive |
| CC(C)C[C@@H](CC(=O)O)[C@@H](C)N | 0% | > 100000 µM |  |  | 0.48 µM | inactive | inactive |
| CC(C)[C@@H](C)[C@H](CN)CC(=O)O | 100% | 157 µM | 71 | 152 | 0.021 µM |  |  |
| NCC1(CC(=O)O)CCCCC1 [GABAPENTIN] | 100% | 30 µM | 48 | 60 | 0.07 µM |  |  |
| CCC(CN)(CC(=O)O)CC(C)C (stereo not drawn) | 20% | 60 µM |  |  | 8.56 µM | inactive |  |
| CCC[C@@H](CC(=O)O)[C@@H](C)N | 0% | > 8300 µM |  |  | 1.29 µM | inactive | inactive |
| CC(C)C[C@H](CN)[C@H](C)C(=O)O | 0% | 117 µM |  |  | > 10 µM | inactive |  |
| CCC(CC)C(CN)CC(=O)O (stereo not drawn) | 20% | 146 µM |  |  | 0.203 µM | inactive | inactive |
| CCC(CC)CC(CN)CC(=O)O (stereo not drawn) | 0% | 142 µM |  |  | 1.33 µM | inactive | inactive |
| CC(C)C[C@@H](CN)CC(=O)O | 0% | 355 µM |  |  |  | inactive | inactive |
| CCCC[C@@H](CC(=O)O)[C@@H](C)N | 0% | > 8300 µM |  |  | 1.03 µM | inactive | inactive |
| CC(C)CC(C)(CN)CC(=O)O (stereo not drawn) | 0% | 89 µM |  |  |  | inactive | inactive |
| CC(C)C[C@@H](CC(=O)O)[C@H](C)N | 0% | > 10000 µM |  |  | 0.039 µM | inactive | inactive |

Reference: ChEMBL document CHEMBL1143562 (J Med Chem, 2005)
